Results from US20060020029A1, “Pharmaceutical compositions from ethnobotanicals” (priority 2004, published 2006).

Assay: Stability in methanol (HPLC)
Assay type: physicochemical
Experimental: The stability of 3,5 Dicaffeoyl-Quinic Acid (3,5-DCQA) was first evaluated in methanol. 3.8 mg 3,5-DCQA was dissolved in 0.2375 ml MeOH (conc.=16 mg/ml), and then diluted as ½, ¼ and ⅛ dilution, respectively. All samples were subjected to HPLC in 0 Day, 1 Day, 2 Day and 4 Day, and the Area% of 3,5-DCQA was calculated.

Which results are given for O=C(/C=C/c1ccc(O)c(O)c1)OC1CC(O)(C(=O)O)CC(OC(=O)/C=C/c2ccc(O)c(O)c2)C1O (stereo not drawn) [CJ4-16-4, 3,5-di-O-caffeoylquinic acid]?
Area % of 3,5-DCQA (HPLC) (Stock (16 mg/ml), 0 Day): 97.40 Area%; Area % of 3,5-DCQA (HPLC) (Stock (16 mg/ml), 1 Day): 97.16 Area%; Area % of 3,5-DCQA (HPLC) (Stock (16 mg/ml), 2 Day): 96.42 Area%; Area % of 3,5-DCQA (HPLC) (Stock (16 mg/ml), 4 Day): 95.39 Area%; Area % of 3,5-DCQA (HPLC) (¼ dilution, 2 Day): 96.65 Area%; Area % of 3,5-DCQA (HPLC) (¼ dilution, 4 Day): 95.88 Area%; Area % of 3,5-DCQA (HPLC) (½ dilution, 2 Day): 97.03 Area%; Area % of 3,5-DCQA (HPLC) (½ dilution, 4 Day): 95.66 Area%; Area % of 3,5-DCQA (HPLC) (⅛ dilution, 0 Day): 97.32 Area%; Area % of 3,5-DCQA (HPLC) (⅛ dilution, 1 Day): 96.84 Area%; Area % of 3,5-DCQA (HPLC) (⅛ dilution, 2 Day): 94.44 Area%; Area % of 3,5-DCQA (HPLC) (⅛ dilution, 4 Day): 94.27 Area%
